# Experimental data taken from US7420060B2, “Benzopyran derivatives substituted with a thioxobenzoxazole derivative, pharmaceutically acceptable salts thereof, their preparations and pharmaceutical compositions containing them” (Schaeffler KG, priority 2003, dated 2008).
# Experiments:
# [1] = test system: ischemic heart isolated from white rat; assay: Cardioprotective effect on isolated ischemic rat heart (Langendorff, 30 min global ischemia / 30 min reperfusion); conditions: 10 μM
# Description: 100 mg/kg of sodium pentobarbital was injected in abdominal cavity of white male rats (300˜450 g, obtained form the experimental animal team of the Korea Research Institute of Chemical Technology) to anesthetize them. Then, an intravenous injection of 1000 U/kg of heparin was performed before taking out heart. Particularly, cannula(PE 240) was inserted in the trachea, and artificial respiration was tried upon the rat by using a rodent ventilator. Under that condition, aortic cannula was inserted in the aorta and heart was taken out under retrograde perfusion. The extracted heart was hung on Langendorff apparatus quickly and unnecessary tissues on heart were removed. Perfusion was induced under static pressure (85 mmHg) with 37° C. modified Krebs-Henseleit bicarbonate buffer (composition <mM/L>: 116 NaCl, 4.7 KCl, 1.1 MgSO4, 1.17 KH2PO4, 24.9 NaHCO3, 2.52 CaCl2, 8.32 Glucose, 2.0 Pyruvate) saturated with 95% O2/5% CO2. A metal cannula, to which a latex balloon filled with an ethanol-distilled water mixture (1:1 vol/vol) was linked, was inserted in left ventricle through pulmonary vein. Then, left ventricular pressure transmitted through the balloon was transduced by using pressure transducer, and amplified by using Plugsys bridge amplifier isovolumetrically. Then, the pressure was recorded in a recorder (Linearcorder mark 8 WR 3500). Thereafter, heart was stabilized for 15 minutes. Then, left ventricular end diastolic pressure (LVEDP) was given by 5 mmHg and such volume of the balloon was kept all through the experiments.
# Baseline cardiac contractile function, heart rate (HR), and coronary flow (CF) were measured. Cardiac contractile function was calculated by […], yielding LVDP (left ventricular developed pressure). Double product RPP (rate-pressure product)(DP), another important parameter for indirectly assessing cardiac performance in Langendorff heart, whose cardiac output could not be measured ordinarily, was calculated by multiplying HR by LVDP. Throughout the experiment, total coronary blood flow was measured by the use of coronary flow probe (diameter: 1.0 mm) installed in aortic cannula with electromagnetic flowmeter. Temperature of heart was steadily maintained by immersing the heart at 37° C. in physiological saline solution to which 95% O2/5% CO2 was constantly supplied. After stabilization for 15 min, the hearts were pre-treated for 10 min with vehicle (0.04% DMSO) only or a compound of the present invention or the control material in the vehicle. Thereafter, cardiac contractile function, HR and CF were repeatedly measured. Global ischemia was induced by completely shutting off the perfusate for 30 min. Severity of ischemia was determined as the time to contracture (TTC, min) during global ischemia in which the first 5 mmHg increase in EDP was observed. Then, the hearts were reperfused and, 30 min later, contractile functions (LVDP, HR and CF) were repeatedly measured. After reperfusion was accomplished for 30 min, LDH (lactate dehydrogenase) was measured with a kit as a sensitive index for loss of cell viability.
# [2] = test system: ischemic myocardial injury models prepared from white rats; assay: Antiischemic activity in the anesthetized rat ischemic myocardial injury model (coronary occlusion 45 min / reperfusion 90 min); assay type: in vivo; conditions: 0.3 mg/kg, intravenous (femoral vein), 30 min before occlusion
# Description: 75 mg/kg of sodium pentobarbital was injected in abdominal cavity of white male rats (350-450 g, Laboratory Animal Division, Korea Research Institute of Chemical Technology) to anesthetize them. After performing tracheotomy, artificial respiration was induced by 10 ml/kg of stroke volume and 60/min. of heart rate. Cannula was inserted in each of vena fermoralis and aorta fermoralis, through which medicines were administered and blood pressure was measured. In the meantime, since body temperature in a ischemic myocardial injury model was very important factor, directly influencing a result, the temperature of a rat was always kept at 37° C. by using a probe for measuring body temperature inserted in rectum and homeothermic blanket control unit. Mean arterial blood pressure and heart rate (HR) of the rat were measured all through the experiments. Statham P23XL pressure transducer (Grass Ins., MA., USA) was used for measuring blood pressure and ECG/RATE Coupler (Hugo Sachs Electronic, Germany) was used for measuring HR. In addition, all the changes were recorded successively by graphtec linearcorder chart recorder (Graphtec Linearcorder WR 3310, Hugo Sachs Electronic).
# According to the method of Selye H, left coronary aorta was occluded as follows. Left thoracotomy was induced. That is, the chest of a rat was a little opened. The right chest of the anesthetized rat was pressurized by the middle finger of left hand, so that the heart was pushed out. The heart was fixed gently by the thumb and the index finger of the left hand. A stitch was carefully put on a part including left anterior descending coronary artery by a suture needle with operating thread (5-0 silk ligature), and the heart was quickly positioned again in thoracic cavity. Then, both ends of operating thread were exposed outside. Both ends of operating thread were passed through PE tube (PE100, 2.5 cm) and left for 20 minutes for stabilization. A vehicle or a medicine was administered through the cannula inserted in femoral vein, which was left for 30 minutes in order for the medicine to work thoroughly. BMS-180448 was used for a control group and the dosage of each test medicine and a control medicine was 0.3 mg/kg each. […]
# The coronary artery was reoccluded according to the above method and 2 ml of 1% Evans blue solution was administered by intravenous injection. […] The surface of each slice was inputted in a computer by using Hi-scope, a compact micro vision system, and Image pro plus program, from which both normal blood flow tissue area stained by blue and non-stained area on each slice were measured. The ratio of non-stained area to the gross area of each slice was calculated, by which the weight of each slice was multiplied to calculate AAR (area at risk) of each slice. […]
compound,measurement,setting,value
"COC(OC)[C@]1(C)Oc2ccc([N+](=O)[O-])cc2[C@H](n2c(=S)oc3ccccc32)[C@H]1O [Example 1, (2R,3R,4S)-6-nitro-3,4-dihydro-3-hydroxy-2-dimethoxymethyl-2-methyl-4-(2-thioxobenzoxazol-3-yl)-2H-1-benzopyran]",LDH (concentration of lactate dehydogenase),[1]; after 30 min reperfusion,4.6 unit/g
same,EDP (left ventricular end diastolic pressure),"[1]; after reperfusion, baseline set at 5 mmHg",19.8 mmHg
same,TTC (time to induce contraction / time to contracture),"[1]; during 30 min global ischemia, first 5 mmHg increase in EDP",25.3 min
same,LVDP × HR (left ventricular developed pressure × heart rate),"[1]; reperfusion DP as % of pre-treatment DP, 30 min after reperfusion",53.8%
same,IZ/AAR(%) myocardial infarction size to area at risk,[2],39.6%
